Patent publication US20240122934A1, “COMPOSITIONS AND METHODS OF TREATMENT FOR INHIBITING CAPILLARY TUBE REGRESSION” (University of South Florida, priority 2019, published 2024)
“Also recorded” adds a separate entry of the source.

Columns and labels:
Format in all cases: cell-based, human
EC sprouts and tubes = test: angiogenic sprouting assay (ECs invading from monolayer surface); conditions: for EC tube regression by signaling-mimicking drugs: Frax486 2.5 μM, vinblastine 100 nM, 24 hr
Protocol: (A) ECs were seeded onto a monolayer surface and then allowed to invade into the gels to form tubes over a 48 hr period. At this time, cultures were then treated with IL-1β or TNFα and in the absence or presence of FIST. Cultures were fixed after 24 hr, stained and photographed to visualize the monolayer surface and the underlying sprouts and tubes. (B) Cultures were established just like in A and then the Pak2 inhibitor, Frax486 (2.5 μM) or the microtubule depolymerizing agent, vinblastine (100 nM), were added to media in the presence or absence of FIST. Cultures were fixed after 24 hr, stained and photographed. Bar equals 200 μm.
Studies to define the factors and signals that promote endothelial cell (EC) lumen and tube formation, EC sprouting and EC-pericyte tube co-assembly have been performed under serum-free defined conditions so that the functional role of individual molecules that regulate these processes can be assessed. Disclosed herein, the factors that control capillary regression are defined. Capillary regression is a process that has been largely neglected despite the likelihood that it may present a fundamental pathogenic feature of major human diseases where capillary disassembly and regression are known to occur (i.e. hypertension, diabetes, ischemic disease in many tissues, neurodegenerative diseases, and malignant cancer). […] EC tube networks were allowed to form for 48 hr. (vasculogenesis type of assay) and then added these agents in dose-response experiments, showing that they potently induce EC tube regression (at low ng levels) (FIG. 1). Real-time movies were performed to visualize these pro-regressive activities. This experimental approach has utilized assays that mimic vasculogenesis or angiogenic sprouting and these factors induce regression equally well in both assay systems. […] These studies have been performed primarily in 3D collagen matrices, but the same result is also observed in 3D fibrin matrices.

EC tube networks [1] = test: 3D collagen EC tube regression assay; conditions: for effect of added HDAC6 inhibitor on pharmacologic rescue: 10 μM added to FISSB2, mediators 10 ng/ml, thrombin 1 μg/ml; for effect of added HDAC6 inhibitor on pharmacologic rescue / EC tube regression (pro-regressive activity): 24 hr; for EC tube regression in screen of growth factors and cytokines: 40 and 10 ng/ml, 48 hr EC tube networks; for EC tube regression (pro-regressive activity): factor added to established 48 hr EC tube networks
Protocol: (A) EC cultures with tube networks were established for 48 hr followed by the addition of indicated cytokines or thrombin (Thr) for 24 hr. IL-1β and IL-la were added at 1 ng/ml, TNFα at 3.16 ng/ml and thrombin at 1 μg/ml. Bars equal 100 or 200 μm. (B,C,D) EC tube networks were treated with the indicated cytokines and varying concentrations in dose-response analyses and in the presence or absence of thrombin added at 1 μg/ml. After 24 hr, cultures were fixed, stained and quantitated for EC lumen area per field. These curves are from a representative experiment using triplicate wells for each condition. The values (±SD) are derived from analyzed fields (n=15) where total lumen and tube area was measured. Asterisks indicate significance at p<0.05 compared to control and squares indicate significance at p<0.05 compared to the cytokine treatments alone.
ECs (passages 3-6) and pericytes (passages 3-12) were cultured as previously described^49,50. THP-1 cells were cultured in RPMI-1640-20% FCS. THP-1-T macrophages were differentiated for 72 hr. with 50 ng/ml of phorbol ester in RPMI-20% FCS, and then treated for 48 hr. in RPMI-2% FCS prior to adding TLR ligands. THP-1-VT macrophages were induced to differentiate for 72 hr. with 10^-7 M vitamin D3 (Calcitriol) in RPMI-20% FCS, followed by 48 hr. with phorbol ester in RPMI-2% FCS prior to adding TLR ligands.
(§1) ECs or ECs with pericytes were suspended in 3D collagen matrices and incubated at 37° C. in serum-free defined media as described^9,50,51. Recombinant factors or THP-1 conditioned media were added at the indicated doses to existing 48 or 72 hr. cultures with EC only or EC-pericyte tube networks, respectively. After 24 or 48 hr. for EC only or EC-pericyte tubes, respectively, cultures were fixed in 3% glutaraldehyde or 3% paraformaldehyde. EC tube areas were traced and quantitated as described. In some cases, neutralizing antibodies were added (10 μg/ml). For signaling experiments, lysates were prepared from control vs. regressing 3D cultures at different time points.

[2] = tested on: EC-pericyte tube networks; test: EC-pericyte co-culture regression assay; conditions: added to 72 hr co-cultures
Protocol: (A) EC-pericyte (GFP-labeled) co-cultures were established and allowed to form for 72 hr and at this time, the combination of IL-1β (10 ng/ml), TNFα (10 ng/ml) and thrombin (11 μg/ml) were added in combination compared to control and real-time movies were performed. Light and fluorescent image overlays over time are shown in representative fields. Arrowheads indicate clusters of pericytes that accumulate together during regression responses in response to these three factors in combination. After 48 hr, fixed cultures were stained for CD31 to detect ECs and fluorescence image overlays were performed. (B) The same set up was established as in A, except that each individual factor and combination of factors were added. After 48 hr, the cultures were fixed and stained for CD31. Confocal images were obtained, and fluorescence overlay images are shown.
(A) EC-pericyte co-cultures were established for 72 hr, and then were left untreated or with IL-1β (10 ng/ml), TNFα (10 ng/ml), and thrombin (11 μg/ml) in combination. After 48 hr, cultures were fixed and stained with CD31, confocal microscopy and 3D reconstruction of the images allowed for an upright and side view. (B) EC-pericyte tube networks were treated with the indicated single and combined factors and after fixation, EC tube area was quantitated. […] The values (±SD) were obtained from analyzed fields (n=15) where total lumen and tube area was measured. Asterisks indicate increased significance at p<0.05 compared to control, the squares indicate decreased significance at p<0.05 relative to the single factor conditions and the triangle indicates significance at p<0.05 relative to the double factor conditions. (C) EC-pericyte tube networks were treated with indicated combinations of factors. After 48 hr, total GFP fluorescence per well was quantitated as a measure of pericyte number since they are GFP-labeled. […] Asterisks indicate significance at p<0.05 compared to control.
as §1

EC tube networks [3] = test: Western blots of lysates from regressing 3D EC cultures (regression signaling signature); conditions: 24-hr. time course, compared to control EC tubes
Protocol: (A,B) ECs tube networks were treated with the indicated factors vs. control and at different time points, lysates were prepared from the 3D cultures. Western blots were performed using the different indicated antibodies. (C) Schematic illustrating findings that define a capillary regression signaling signature.
THP-T macrophages were treated with Pam3CSK4 (Pam) or LPS and conditioned medium was added at a 1:20 or 1:50 dilution, respectively, to EC tube networks. Control and IL10-treated cultures were compared with the conditioned medium treatments within the same experiment. At the indicated time points, lysates were obtained, and Western blots were performed with the indicated antibodies.
as §1

With `CCn1c(=O)c(-c2ccc(Cl)cc2Cl)cc2cnc(Nc3ccc(N4CCNCC4)c(F)c3)nc21` [Frax486, reference compound] as the molecule, how does the “EC tube regression by signaling-mimicking drugs” value (EC sprouts and tubes) read?
Its value is “led to marked regression”.

How did the “effect of adding drug to FISTSB on rescue” value (EC tube networks [1]; FISTSBY vs FISTSB) turn out when `C[C@@H](N)[C@H]1CC[C@H](C(=O)Nc2ccncc2)CC1` [Y27632, reference compound] was run?
The value was “did not enhance the ability of FISTSB to rescue capillary regression”.

How did the “effect of added HDAC6 inhibitor on pharmacologic rescue” value (EC tube networks [1]) turn out when `O=C(CCCCCCC(=O)Nc1ccc([C@H]2O[C@@H](CSc3nc(-c4ccccc4)c(-c4ccccc4)o3)C[C@@H](c3ccc(CO)cc3)O2)cc1)NO` [tubacin, reference compound] was run?
Its value is “enhance the pharmacologic rescue of capillary regression induced by pro-inflammatory mediators”.

With `CN1CCc2c(c3ccccc3n2Cc2ccc(C(=O)NO)cc2)C1` [tubastatin, reference compound] as the molecule, how does the “effect of added HDAC6 inhibitor on pharmacologic rescue” value (EC tube networks [1]) read?
The value was “enhance the pharmacologic rescue of capillary regression induced by pro-inflammatory mediators”.

With `CC[C@]1(O)C[C@@H]2CN(CCc3c([nH]c4ccccc34)[C@@](C(=O)OC)(c3cc4c(cc3OC)N(C)[C@H]3[C@@](O)(C(=O)OC)[C@H](OC(C)=O)[C@]5(CC)C=CCN6CC[C@]43[C@@H]65)C2)C1` [vinblastine, reference compound] as the molecule, how does the “EC tube regression by signaling-mimicking drugs” value (EC sprouts and tubes) read?
Its value is “led to marked regression”.

Which “EC tube regression in screen of growth factors and cytokines” value (shortened to “EC tube regression in screen”) (EC tube networks [1]) does the source give for IFNα here?
Its value is “did not have any activity”.

For IFNγ: interferon gamma, which “EC tube regression in screen” value (EC tube networks [1]) is on record?
Its value is “demonstrated significantly increased regression at both doses”.

Which results are given for “IL-1β: interleukin-1 beta, pro-inflammatory cytokine”?
EC tube regression in screen of growth factors and cytokines (EC tube networks [1]): more potent pro-regressive factors than the other factors described herein; EC tube regression (pro-regressive activity) (EC tube networks [1]): directly cause capillary tube collapse and regression; EC tube regression in EC-pericyte co-cultures [2]: marked tube regression in response to each factor individually and, also in combination; pericyte numbers [2]: an increase in pericyte numbers; ICAM-1 and VCAM-1 levels (EC tube networks [3]): Strong upregulation of ICAM-1 and VCAM-1; phospho-Pak2, phospho-cofilin, acetylated tubulin, procaspase3 levels (EC tube networks [3]): decreased levels of phospho-Pak2, phospho-cofilin, acetylated tubulin and procaspase3; phospho-p38, phospho-JNK, phospho-MLC2 levels (EC tube networks [3]): increased levels of phospho-p38, phospho-JNK, and phospho-MLC2; degeneration of sprouts and EC monolayer (EC sprouts and tubes; angiogenic sprouting system): induce degeneration of the invading sprouts, but also the EC monolayer surface where the sprouts originated

How did the “EC tube regression (pro-regressive activity)” value (EC tube networks [1]) turn out when “IL-6: cytokine co-induced in macrophages along with IL-1 and TNF” was run?
The value was “does not have pro-regressive activity; also recorded: had no regressive effect”.

How did the “EC tube regression in screen” value (EC tube networks [1]) turn out when IL-13: cytokine was run?
The value was “demonstrated significantly increased regression at both doses”.

How did the “EC tube regression in screen” value (EC tube networks [1]) turn out when TGFβ1: growth factor was run?
The value was “demonstrated significantly increased regression at both doses”.

B1: IL-la: IL-1 isoform, pro-regressive cytokine (protein, UniProt P01583 113-271, looked up)
Interleukin-1 alpha: SAPFSFLSNVKYNFMRIIKYEFILNDALNQSIIRANDQYLTAAALHNLDEAVKFDMGAYKSSKDDAKITVILRISKTQLYVTAQDEDQPVLLKEMPEIPKTITGSETNLLFFWETHGTKNYFTSVAHPNLFIATKQDYWVCLAGGPPSITDFQILENQA
B1 was tested. Which “EC tube regression (pro-regressive activity)” value (EC tube networks [1]) did it give?
The value was “directly cause capillary tube collapse and regression; also recorded: powerful ability to induce EC tube regression”.

B2: TGFβ2: growth factor (protein, UniProt P61812 303-414, looked up)
Transforming growth factor …: ALDAAYCFRNVQDNCCLRPLYIDFKRDLGWKWIHEPKGYNANFCAGACPYLWSSDTQHSRVLSLYNTINPEASASPCCVSQDLEPLTILYYIGKTPKIEQLSNMIVKSCKCS
B2 was tested. Which “EC tube regression in screen” value (EC tube networks [1]) did it give?
The value was “demonstrated significantly increased regression at both doses”.

B3: IL-4: interleukin-4 (protein, UniProt P05112 25-153, looked up)
Interleukin-4: HKCDITLQEIIKTLNSLTEQKTLCTELTVTDIFAASKNTTEKETFCRAATVLRQFYSHHEKDTRCLGATAQQFHRHKQLIRFLKRLDRNLWGLAGLNSCPVKEANQSTLENFLERLKTIMREKYSKCSS
B3 was tested. Which “EC tube regression in screen” value (EC tube networks [1]) did it give?
The value was “demonstrated significantly increased regression at both doses”.

B4: Light: pro-regressive factor identified in the cytokine screen (protein, UniProt O43557 83-240, looked up)
Tumor necrosis factor ligand …: LIQERRSHEVNPAAHLTGANSSLTGSGGPLLWETQLGLAFLRGLSYHDGALVVTKAGYYYIYSKVQLGGVGCPLGLASTITHGLYKRTPRYPEELELLVSQQSPCGRATSSSRVWWDSSFLGGVVHLEAGEKVVVRVLDERLVRLRDGTRSYFGAFMV
B4 was tested. Which “EC tube regression in screen” value (EC tube networks [1]) did it give?
Its value is “demonstrated significantly increased regression at both doses”.

B5: BMP-9: growth factor (protein, UniProt Q9UK05 320-429, looked up)
Growth/differentiation factor …: SAGAGSHCQKTSLRVNFEDIGWDSWIIAPKEYEAYECKGGCFFPLADDVTPTKHAIVQTLVHLKFPTKVGKACCVPTKLSPISVLYKDDMGVPTLKYHYEGMSVAECGCR
How did the “EC tube regression in screen” value (EC tube networks [1]) turn out when B5 was run?
The value was “demonstrated significantly increased regression at both doses”.

B6: BMP-10: growth factor (protein, UniProt O95393 317-424, looked up)
Bone morphogenetic protein 10: NAKGNYCKRTPLYIDFKEIGWDSWIIAPPGYEAYECRGVCNYPLAEHLTPTKHAIIQALVHLKNSQKASKACCVPTKLEPISILYLDKGVVTYKFKYEGMAVSECGCR
For B6, which “EC tube regression in screen” value (EC tube networks [1]) is on record?
Its value is “demonstrated significantly increased regression at both doses”.
